# Key:
# [1] = tested on: embryonic cell line BME26; assay: Phenotypic screening on BME26 cell cultures (MTT viability); assay type: cell-based, R. microplus
# Procedure: The embryonic cell line BME26 from R. microplus (Centro de Biotecnologia, Universidade Federal do Rio Grande do Sul, Porto Alegre, RS, Brazil) was grown as adherent monolayers in a complete medium, as described previously, which consisted of L-15B300 medium supplemented with 5% heat-inactivated Fetal Bovine Serum (FBS) (Gibco Co., Grand Island, NY), 10% Tryptose Phosphate Broth (TPB) (BD), penicillin (100 U/mL), streptomycin ([…], Gibco Co., Grand Island, NY, USA), and 0.1% bovine lipoprotein concentrate (ICN), (pH 7.2). The suspension of embryonic BME26 cells from R. microplus was seeded into 24-well plates (5 × 10^5 cells/well) to a final volume of 500 μL in a complete medium, and allowed to attach. After 24 h incubation at 34 °C, the extracts (100 µg/mL final concentration) and the compounds were added to the final concentrations indicated (1–100 µM), and 0.05% dimethylsulfoxide (DMSO) was used in the negative control wells. After 24 h of treatment, 50 μL of 3-(4,5-dimethylthiazol-2-yl)-2,5-diphenyltetrazolium bromide (MTT) prepared in serum-free medium (5 mg/mL) was added to each well. The media were discarded after 2 additional hours of incubation, and 1 mL of acid-isopropyl alcohol (0.15% HCl in isopropyl alcohol) was added to dissolve the formazan crystals. The mixture was transferred to 1.5 mL tubes, centrifuged at 6000× g for 15 min, and the clear supernatant was collected in new tubes for absorbance measurement at 570 nm using quartz cuvettes in a UVmini-1240 UV–vis spectrophotometer (Shimadzu, Japan). Absorbance values of the control treatment were used for normalization (100% viability). The activity was determined by analysis using OriginLab8.5® sigmoidal regression (% of viable cells compared to the logarithm of the compound concentration). The half-maximal inhibitory concentration (IC50), defined as the drug concentration at which 50% of the cells were viable relative to the control (no drug added), was used as a measurement of activity. These experiments were performed in triplicate for each compound.
# [2] = tested on: J774.1 murine macrophages; assay: Cytotoxicity assay on murine macrophages (MTT); assay type: cell-based; details: Mus musculus, J774.1, 48 h, read-out: IC50 (µM) Mammalian Cells
# Procedure: J774.1 murine macrophages (ATCC, Rockville, MD, USA) were grown in a DMEM culture medium containing 4 mM L-glutamine, and supplemented with 10% FCS. The cells were seeded into a 96-well plate (5 × 10^4 cells in 200 µL culture medium) and incubated at 37 °C in a 5% CO2 atmosphere for 48 h, to allow cell adhesion before drug testing. Afterward, the cells were exposed for 48 h to the compounds (25–400 μM) or the vehicle (0.4% DMSO), and additional controls (cells in medium) were used in each test. Cell viability was then assessed by measuring the mitochondria-dependent reduction of MTT to formazan: for this, MTT in sterile PBS (0.2% glucose), pH 7.4, was added to the macrophages, to a final concentration of 0.1 mg/mL, and the cells were then incubated at 37 °C for 3 h. After removing the medium, the formazan crystals were dissolved in 180 μL of DMSO and 20 μL of MTT buffer (0.1 M glycine, 0.1 M NaCl, 0.5 mM EDTA, pH 10.5), and the absorbance was measured at 560 nm. The IC50 was defined as the drug concentration at which 50% of the cells were viable, relative to the control (no drug added), and was determined by analysis using OriginLab 8.5 Corporation, Northampton, MA, USA, sigmoidal regression (% of viable cells compared to the logarithm of the compound concentration). The tests were performed in triplicate in two independent experiments.
# [3] = tested on: fully engorged females of the Mozo susceptible strain of R. microplus; assay: Adult Immersion Test (AIT); assay type: in vivo; details: compounds 1.5 mM, 15 min immersion, 14 days
# Procedure: This essay was performed based on Drummond et al., 1973, as each group of 5 fully engorged females of the Mozo susceptible strain of R. microplus was immersed in 50 mL tubes containing 10 mL of compounds at different concentrations (0.5, 1, 1.5, 2, 3.5 mM) for 15 min in four replicates. Four negative control groups were used (DMSO 10%). After immersion, the fully engorged females were lightly dried with absorbent paper. They were then placed in 100 mm disposable Petri dishes with their respective identification, and immediately incubated at 27 °C in an atmosphere with relative humidity (RH) of 85-90% for 14 days. […] The tubes carrying the eggs were closed with hydrophilic cotton, and were returned to the incubator chamber under the same conditions until the eggs hatched. The reproductive efficacy, as well as % control of each compound on R. microplus, was calculated according to published reports. The results were verified in two independent experiments.
# [4] = tested on: R. microplus (Mozo strain) larvae; assay: Larval Immersion Test (LIT); assay type: in vivo; details: compounds 1.0 mM, 10 min immersion, 24 h
# Procedure: (§1) This assay was performed based on the method of Castro-Janer et al., 2011. Fully engorged females of R. microplus (Mozo strain) were incubated in Petri dishes at 27 °C and 85–90% relative humidity for 14 days. […] The tubes were incubated in the same conditions as described above. The larvae were ready for testing after 14 to 21 days from egg-hatching. For the test, the compounds were diluted in DMSO, and were later resuspended in distilled water, always using 15% DMSO of the final solution volume. The concentrations for the different compounds for the final immersion solution are 1 mg/mL for the extracts, and 1 mM for the compounds. […] For the immersion procedure, tubes containing the larvae were placed vertically, without the cotton plug, and the larvae were taken with a brush from the top of the tube, ensuring they were viable. A cluster with a diameter of 2 mm of larvae was collected with a brush, and was later immersed in each solution, as well as in both control solutions, for 10 min. After this time, the solutions were drained, and the larvae were placed in 8.5 cm × 7.5 cm Whatman No. 1 filter papers. The filters were folded in the middle of the 8.5 cm side, and closed with 3 bulldog clips, forming packets. These packets were incubated for 24 h, under the same conditions as described previously, and then the percent of mortality was determined, considering it as the % of the control.
# R. microplus = assay: Acaricidal activity on R. microplus (LIT and AIT, overall statement); assay type: in vivo; details: LIT 1 mM and AIT 1.5 mM
# Procedure: as §1, with “After immersion, the fully engorged females were lightly dried with absorbent paper. […] The tubes carrying the eggs were closed with hydrophilic cotton, and were returned to the incubator chamber under the same conditions until the eggs hatched. The reproductive efficacy, as well as % control of each compound on R. microplus, was calculated according to published reports. The results were verified in two independent experiments. This” for “This”, “2011.” for “2011. Fully engorged females of R. microplus (Mozo strain) were incubated in Petri dishes at 27 °C and 85–90% relative humidity for 14 days.”, “volume.” for “volume. The concentrations for the different compounds for the final immersion solution are 1 mg/mL for the extracts, and 1 mM for the compounds.”
# [5] = parameters: method as in PMID 28481276; details: experimental data; cited from earlier work
# [6] = parameters: method as in PMID 28481276; details: in mice; cited from earlier work
compound,measurement,setting,value
O=C(/C=C/c1cccs1)/C=C/c1cccs1 [compound 796],IC50,"[1]; BME26 cells, 24 h, MTT, read-out: IC50",15 ± 3 µM
same,inhibition at 100 µM,"[1]; synthetic compounds at 100 μM, BME26, 24 h, read-out: % of Growth Inhibition",93%
same,IC50,[2],> 50 µM
same,% of Mortality AIT,[3],20 ± 1%
same,% of Mortality LIT,[4],36 ± 8%
same,acaricidal activity (in words),R. microplus,acaricidal potential against R. microplus similar to Amitraz
same,Mutagenicity by Ames Test,[5],Negative *
same,LD50 (mg/kg),[6],>2000^+ mg/kg

# Source: article PMC9781803, “Phenotypic and Target-Directed Screening Yields New Acaricidal Alternatives for the Control of Ticks” (Molecules, 2022)
